The nature of data set [1]: Metabolic (microsomal) stability assay. It is filed as in vitro ADME. As to conditions: mouse liver microsomes, T1/2; read-out: DMPK-invitro-metabolic Stability (Mouse T1/2). The text has this: Example 12: Metabolic (Microsomal) Stability Assay
(In general: Liver microsomes are a subcellular fraction often used to study metabolism.)

The subject of data set [2] is MIA PaCa-2 cells (K-Ras G12C). The data set is described as follows: Ras-SOS cellular growth inhibition assay (CellTiter-Glo, 3D). The note with it: Homo sapiens. It is filed as cell-based. An outline of the steps:
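MIA PaCa-2 cells grown in ultra-low-attachment plates (3D) in DMEM/Ham's F12 with 10% FCS and 2.5% horse serum, treated the day after seeding with a 9-point 3-fold compound series for about 5 days. Viability by CellTiter-Glo luminescence; IC50 from four-parameter fit.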
(In general: Cellular ATP, detected with luciferase, serves as a proxy for viable cell number.)

For the next data set, the target named is SOS1 (Homo sapiens (Human), UniProt Q07889). The data set can be described thus: Ras-SOS interaction assay (HTRF). It is filed as biochemical. In general terms: TR-FRET usually uses a lanthanide donor and a delayed reading to cut background.
The test system of data set [3] is NCI-H1975 cells (EGFR T790M L858R). The data set can be described thus: EGFR-SOS cellular inhibition assay (CellTiter-Glo, 3D). It counts as cell-based. The note with it: Homo sapiens.
A short description of data set [4]: In vitro plasma protein binding (PPB). It counts as in vitro ADME. As to conditions: percentage of free/unbound compound.
Setting [5] is: MIA PaCa-2, 120 h, MIA PaCa-2, 3D proliferation, about 5 days, read-out: Bio-Cell-Prolif-3D (MiaPaca2 IC50).
Where [6] appears, read: K-RasG13D utilized, read-out: IC50 inhibition of SOS.
The mark [7] stands for this setting: K-RasG13D, read-out: IC50 value against SOS1.
Where [8] appears, read: 120 h, NCI-H1975, 3D proliferation, about 5 days, read-out: Bio-Cell-Prolif-3D (H1975 IC50).
[9] abbreviates: NCI-H1975, EGFR T790M L858R, read-out: IC50 in inhibiting growth of NCI-H1975 cell line.
Where [10] appears, read: MIA PaCa-2, MIA PaCa-2, read-out: IC50 in inhibiting MIA PaCa-2 cell growth.

By IC50 is commonly meant the concentration at which inhibition is half-maximal.

Structures are written as SMILES. Read-outs that look alike come from different tables or passages of the source. A value given as a limit tells only on which side of the number the result lay.

Sequence of SOS1 (Q07889 564-1049): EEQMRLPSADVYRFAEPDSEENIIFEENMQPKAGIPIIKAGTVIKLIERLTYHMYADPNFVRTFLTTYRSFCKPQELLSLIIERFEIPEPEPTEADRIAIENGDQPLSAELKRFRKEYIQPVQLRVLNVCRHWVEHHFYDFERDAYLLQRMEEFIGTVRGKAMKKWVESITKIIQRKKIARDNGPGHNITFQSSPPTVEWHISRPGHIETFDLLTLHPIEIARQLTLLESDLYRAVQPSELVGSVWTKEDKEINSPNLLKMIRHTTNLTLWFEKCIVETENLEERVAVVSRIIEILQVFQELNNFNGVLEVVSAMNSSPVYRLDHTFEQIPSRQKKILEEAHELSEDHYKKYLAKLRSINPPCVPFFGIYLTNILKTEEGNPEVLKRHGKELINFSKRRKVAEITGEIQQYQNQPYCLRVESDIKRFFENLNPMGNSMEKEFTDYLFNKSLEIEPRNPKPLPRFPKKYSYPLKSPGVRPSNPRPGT

`C[C@@H](Nc1ncnc2nc(Cl)c(C3(C#N)CC3)cc12)c1cccc(C(F)F)c1F` [Compound 200, (R)-1-(7-chloro-4-((1-(3-(difluoromethyl)-2-fluorophenyl)ethyl)amino)pyrido[2,3-d]pyrimidin-6-yl)cyclopropane-1-carbonitrile]: in data set [1], the half-life came to 154 min. For the same molecule, the IC50 was at most 1000 nM in data set [2] (setting [5]); below 100 nM on SOS1 (setting [6]); below 50 nM on SOS1 (setting [7]); at most 1000 nM in data set [3] (setting [8]); below 500 nM in data set [3] (setting [9]).
As to `Cc1nc(N[C@H](C)c2cccc(C(F)F)c2F)c2cc(C3(C#N)CC3)c(O[C@@H]3CCOC3)nc2n1` [Compound 298, 1-(4-(((R)-1-(3-(difluoromethyl)-2-fluorophenyl)ethyl)amino)-2-methyl-7-(((R)-tetrahydrofuran-3-yl)oxy)pyrido[2,3-d]pyrimidin-6-yl)cyclopropane-1-carbonitrile], the half-life in data set [1] is 1.5 min. Moreover, the IC50 was at most 1000 nM in data set [2] (setting [5]), 100 to 1000 nM at SOS1 (setting [6]) and at most 1000 nM in data set [3] (setting [8]).
In the case of `C[C@@H](Nc1ncnc2nc(Cl)c(C3(C#N)CC3)cc12)c1cccc(C(F)(F)[C@@H](C)O)c1` [Compound 214, 1-(7-chloro-4-(((R)-1-(3-((R)-1,1-difluoro-2-hydroxypropyl)phenyl)ethyl)amino)pyrido[2,3-d]pyrimidin-6-yl) cyclopropane-1-carbonitrile], in data set [1], the half-life was above 200 min. Further, the IC50 in data set [2] (setting [5]) is at most 1000 nM; in data set [2] (setting [10]) it was below 500 nM; at SOS1 (setting [6]), below 100 nM; at SOS1 (setting [7]), below 50 nM; in data set [3] (setting [8]), at most 1000 nM; in data set [3] (setting [9]), below 500 nM.
For the molecule `C[C@@H](Nc1ncnc2nc(O[C@@H]3CCOC3)c(C3(C#N)CC3)cc12)c1cccc(C(F)F)c1F` [Compound 409, 1-(4-(((R)-1-(3-(difluoromethyl)-2-fluorophenyl)ethyl)amino)-7-(((R)-tetrahydrofuran-3-yl)oxy)pyrido[2,3-d]pyrimidin-6-yl)cyclopropane-1-carbonitrile], the half-life in data set [1] worked out at 5.6 min. The IC50 in data set [2] (setting [5]) was at most 1000 nM; at SOS1 (setting [6]), 100 to 1000 nM; in data set [3] (setting [8]) it was at most 1000 nM; in data set [3] (setting [9]), below 500 nM.
For `COc1nc2nc(C)nc(N[C@H](C)c3cccc(C(F)(F)C(C)(C)O)c3)c2cc1C1(C#N)CC1` [Compound 175, (R)-1-(4-((1-(3-(1,1-difluoro-2-hydroxy-2-methylpropyl)phenyl)ethyl)amino)-7-methoxy-2-methylpyrido[2,3-d]pyrimidin-6-yl)cyclopropane-1-carbonitrile], the half-life in data set [1] stood at 198 min. Also, the IC50 in data set [2] (setting [5]) is at most 1000 nM; in data set [2] (setting [10]) it was below 500 nM; on SOS1 (setting [6]), below 100 nM; at SOS1 (setting [7]) it was below 50 nM; in data set [3] (setting [8]), at most 1000 nM; in data set [3] (setting [9]), below 500 nM. Moreover, the “DMPK-invitro-PPB (Mouse Unbound) [%]” value in data set [4] is 0.11%.
With `Cc1nc(N[C@H](C)c2cccc(C(F)(F)[C@@H](C)O)c2)c2cc(C3(C#N)CC3)c(Cl)nc2n1` [Compound 219, 1-(7-chloro-4-(((R)-1-(3-((R)-1,1-difluoro-2-hydroxypropyl)phenyl)ethyl)amino)-2-methylpyrido[2,3-d]pyrimidin-6-yl)cyclopropane-1-carbonitrile], the half-life in data set [1] turned out to be 99 min. The IC50 in data set [2] (setting [5]) is at most 1000 nM; in data set [2] (setting [10]), below 500 nM; at SOS1 (setting [6]), below 100 nM; at SOS1 (setting [7]), below 50 nM; in data set [3] (setting [8]), at most 1000 nM; in data set [3] (setting [9]), below 500 nM.
As for `Cc1nc(N[C@H](C)c2cccc(C(F)(F)C(C)(C)O)c2)c2cc(C3(C#N)CC3)c(Cl)nc2n1` [Compound 193, (R)-1-(7-chloro-4-((1-(3-(1,1-difluoro-2-hydroxy-2-methylpropyl)phenyl)ethyl)amino)-2-methylpyrido[2,3-d]pyrimidin-6-yl)cyclopropane-1-carbonitrile], the half-life in data set [1] was above 200 min. The IC50 in data set [2] (setting [5]) was at most 1000 nM; in data set [2] (setting [10]) it was below 500 nM; on SOS1 (setting [6]), below 100 nM; at SOS1 (setting [7]), below 50 nM; in data set [3] (setting [8]) it was at most 1000 nM; in data set [3] (setting [9]) it was below 500 nM.
On to `Cc1nc(N[C@H](C)c2cccc(C(F)F)c2F)c2cc(C3(C#N)CC3)c(OC3COC3)nc2n1` [Compound 402, (R)-1-(4-((1-(3-(difluoromethyl)-2-fluorophenyl)ethyl)amino)-2-methyl-7-(oxetan-3-yloxy)pyrido[2,3-d]pyrimidin-6-yl)cyclopropane-1-carbonitrile], for which the half-life in data set [1] worked out at 19.3 min. The IC50 in data set [2] (setting [5]) is at most 1000 nM; in data set [2] (setting [10]) it was below 500 nM; at SOS1 (setting [6]) it was below 100 nM; in data set [3] (setting [8]), at most 1000 nM.
`Cc1nc(N[C@H](C)c2cccc(C(F)(F)C(C)(C)O)c2F)c2cc(C3(C#N)CC3)c(Cl)nc2n1` [Compound 170, (R)-1-(7-chloro-4-((1-(3-(1,1-difluoro-2-hydroxy-2-methylpropyl)-2-fluorophenyl)ethyl)amino)-2-methylpyrido[2,3-d]pyrimidin-6-yl)cyclopropane-1-carbonitrile]: the half-life in data set [1] is above 200 min. Also, the IC50 in data set [2] (setting [5]) was at most 1000 nM; in data set [2] (setting [10]), below 500 nM; at SOS1 (setting [6]), below 100 nM; in data set [3] (setting [8]) it was at most 1000 nM; in data set [3] (setting [9]), below 500 nM.
For `C[C@@H](Nc1ncnc2nc(OC3COC3)c(C3(C#N)CC3)cc12)c1cccc(C(F)F)c1F` [Compound 400, (R)-1-(4-((1-(3-(difluoromethyl)-2-fluorophenyl)ethyl)amino)-7-(oxetan-3-yloxy)pyrido[2,3-d]pyrimidin-6-yl)cyclopropane-1-carbonitrile], the half-life in data set [1] was determined as 29.4 min. Also, the IC50 was at most 1000 nM in data set [2] (setting [5]), below 500 nM in data set [2] (setting [10]), 100 to 1000 nM on SOS1 (setting [6]) and at most 1000 nM in data set [3] (setting [8]).
For `Cc1nc(N[C@H](C)c2cccc(C(F)F)c2F)c2cc(C3(C#N)CC3)c(OC3CN(C)C3)nc2n1` [Compound 234, (R)-1-(4-((1-(3-(difluoromethyl)-2-fluorophenyl)ethyl)amino)-2-methyl-7-((1-methylazetidin-3-yl)oxy)pyrido[2,3-d]pyrimidin-6-yl)cyclopropane-1-carbonitrile], in data set [1], the half-life was found to be 42.2 min. The IC50 in data set [2] (setting [5]) is at most 1000 nM; on SOS1 (setting [6]) it was below 100 nM; on SOS1 (setting [7]) it was below 50 nM; in data set [3] (setting [8]), at most 1000 nM; in data set [3] (setting [9]), below 500 nM.
For `Cc1nc(N[C@H](C)c2cccc(C(F)F)c2F)c2cc(C3(C#N)CC3)c(Cl)nc2n1` [Compound 352, (R)-1-(7-chloro-4-((1-(3-(difluoromethyl)-2-fluorophenyl)ethyl)amino)-2-methylpyrido[2,3-d]pyrimidin-6-yl)cyclopropane-1-carbonitrile], the half-life in data set [1] was found to be 31 min. Besides, the IC50 is at most 1000 nM in data set [2] (setting [5]); below 500 nM in data set [2] (setting [10]); below 100 nM at SOS1 (setting [6]); below 50 nM at SOS1 (setting [7]); at most 1000 nM in data set [3] (setting [8]); below 500 nM in data set [3] (setting [9]).
Regarding `C[C@@H](Nc1ncnc2nc(OC3CN(C)C3)c(C3(C#N)CC3)cc12)c1cccc(C(F)F)c1F` [Compound 405, (R)-1-(4-((1-(3-(difluoromethyl)-2-fluorophenyl)ethyl)amino)-7-((1-methylazetidin-3-yl)oxy)pyrido[2,3-d]pyrimidin-6-yl)cyclopropane-1-carbonitrile], in data set [1], the half-life was above 200 min. The IC50 in data set [2] (setting [5]) is at most 1000 nM; on SOS1 (setting [6]), below 100 nM; on SOS1 (setting [7]), below 50 nM; in data set [3] (setting [8]), at most 1000 nM; in data set [3] (setting [9]), below 500 nM.
Take `C[C@@H](Nc1ncnc2nc(Cl)c(C3(C#N)CC3)cc12)c1cccc(C(F)(F)CO)c1F` [Compound 362, (R)-1-(7-chloro-4-((1-(3-(1,1-difluoro-2-hydroxyethyl)-2-fluorophenyl)ethyl)amino)pyrido[2,3-d]pyrimidin-6-yl)cyclopropane-1-carbonitrile]: the half-life in data set [1] amounted to 49 min. The IC50 in data set [2] (setting [5]) was 1000 to 10000 nM; at SOS1 (setting [6]), below 100 nM; at SOS1 (setting [7]) it was below 50 nM; in data set [3] (setting [8]), at most 1000 nM; in data set [3] (setting [9]), below 500 nM.
For `C[C@@H](Nc1ncnc2nc(Cl)c(C3(C#N)CC3)cc12)c1cccc(C(F)(F)[C@@H](C)O)c1F` [Compound 365, 1-(7-chloro-4-(((R)-1-(3-((R)-1,1-difluoro-2-hydroxypropyl)-2-fluorophenyl)ethyl)amino)pyrido [2,3-d]pyrimidin-6-yl)cyclopropane-1-carbonitrile], the half-life in data set [1] is above 200 min. Moreover, the IC50 is at most 1000 nM in data set [2] (setting [5]); below 100 nM on SOS1 (setting [6]); below 50 nM at SOS1 (setting [7]); at most 1000 nM in data set [3] (setting [8]); below 500 nM in data set [3] (setting [9]).
For `C[C@@H](Nc1ncnc2nc(Cl)c(C3(C#N)CC3)cc12)c1cccc(C(F)(F)C(C)(C)O)c1F` [Compound 361, (R)-1-(7-chloro-4-((1-(3-(1,1-difluoro-2-hydroxy-2-methylpropyl)-2-fluorophenyl)ethyl)amino)pyrido[2,3-d]pyrimidin-6-yl)cyclopropane-1-carbonitrile], the half-life in data set [1] is above 200 min. For the same molecule, the IC50 in data set [2] (setting [5]) was 1000 to 10000 nM; at SOS1 (setting [6]), below 100 nM; at SOS1 (setting [7]), below 50 nM; in data set [3] (setting [8]), at most 1000 nM; in data set [3] (setting [9]), below 500 nM.

(Values after patent US11648254B2 (Kumquat Biosciences Inc., priority 2021, dated 2023).)
